Test results as given in patent US4385057A, “Diphenylbutyl-piperazinecarboxamides in pharmaceutical compositions and methods” (priority 1978, dated 1983).
Read-outs that look alike come from different tables or passages of the source.

Experiments:
Geller conflict test = type: in vivo; details: s.c., ** (Student's t-test)
Text: The Geller conflict test for anxiolytics clearly meets the requirements for a standard model and is most useful operant paradigm in screening for new drugs. (I. Geller and J. Seifler, Psychopharmacologia l, 482 (1960); B. Blackwell and W. E. Whitehead, In: A. Sudilovsky, S. Gershorn and B. Beer, eds. Predictability in Psychopharmacology: Preclinical and Clinical Correlations. Raven Press New York pp. 121, (1975)).

thymus = experiment: Swim-test (stress-induced thymolymphatic involution); type: in vivo, mouse (NMRI female)
Text: If an animal is in a stage of exhaustion the rise in glucocorticoids induced by the stress causes thymolymphatic involution and elicites a characteristic change in blood count. […] In the experiments NMRI female mice were used with well-documented thymic glands. In the experiments the mice were divided in four groups. In the first group the mice were allowed to stay in their home cages all the time. In the second group saline-treated mice were repeatedly forced to swim in water at a temperature of +5° C. for 1 min. once every hour, 6 times per day for four days. In the third group the mice were pre-treated once with the test compound 10 min. before the first swim-test, otherwise the mice were manipulated in the same way as in the second group. In the fourth group the mice were adrenalectomized three days before the start of the swim tests. Otherwise also this group was manipulated as the second group. All mice were killed on the 5th day of the experiment and the weight of the thymic gland registered.

[1] = tested on: mouse-killing behaviour of rats; experiment: Spontaneous mouse-killing (muricide) by rats; type: in vivo, rat (male hooded Long-Evans); details: Rattus norvegicus, sc
Text: For the purpose of detecting new psychotropic substances with antiaggressive properties, pharmacologist have used several different models. […] This form of aggressive behaviour which is considered to be of predatory nature, is physiologically and topographically different from other forms of aggression (M. O'Boyle, Psychol. Bull. 81, 261 (1974)). Mousekilling is a spontaneous behaviour in some rat strains e.g. male hooded Long-Evans rats. Male hooded Long-Evans rats placed in individual cages were used. By testing a number of rats, a colony of rats was obtained that killed a mouse whenever introduced into the rats' cage, by biting the mouse through the cervical spinal cord. Each rat was tested for mouse-killing behaviour (killing a mouse within 5 minutes) prior to each experiment, thus serving as its own positive control. For each dose level 6 positive rats were selected and the test substance was administered by subcutaneous injection. Doses were selected to form a dose-response curve and the mean effective dose (ED50, mg/kg) was calculated by means of linear regression. The rats were tested at 1, and 2 hours after being injected subcutaneously.

gastric ulcers in rats = experiment: Stress-induced ulcers (restraint and cold); type: in vivo, rat (female Sprague Dawley); details: pre-treatment dose 1.0 mg/kg, 15 min before cold and restraint
Text: A number of methods have been described for studies of somatic expression of adverse stimulation in experimental animals. One method is based upon the development of gastric lesions in rat subjected to some form of environmental stress. The most frequently used mode of stressing the rats is by simple physical restraint. In the experiments to be described rats were immobilized in rigid plastic devices. As repeatedly shown the restraint and the exposure to cold, act synergistically to produce gastric ulcers. The method for production of stress ulcus in rats has been described earlier (R. J. Levine In: C. J. Pfeiffer ed., Peptic Ulcer, Scand. Univ. Books, Copenhagen 1971). The animals in the experiments, female Sprague Dawley rats 180-230 g, have been kept immobilized for three hours at +5° C. For 24 hours prior to restraint the animals furthermore were not allowed to ingest anything but tap water. In all experiments the rats were divided in three groups. In the first group all animals were pre-treated only with saline 15 min. before the exposure to the stressors. […] The third group consisted always of the compound to be tested in this model. The number and severity of gastric erosions in the opened stomach of controls and drug-pre-treated animals were scored. The average number of gastric ulcers in the control rats were put equal to a hundred percent. In table VI the potency of some compounds to protect against gastric ulcers in the described experiments is reported. All pre-treatments were always made 15 min. before the exposure to cold and restraint.

[2] = tested on: acetic acid induced writhing; experiment: Writhing test (analgetic properties); type: in vivo, mouse (NMRI female); details: Mus musculus, sc, 20 min before acetic acid i.p.; read-out: ED50, mg/kg, s.c. (dose blocking the writhing behaviour in 50% of the animals)
Method: The writhing test is a frequently used test of analgetic properties (L. B. Witkin et al., J. Pharmacol. Exp. Ther. 133, 400 (1961)). If acetic acid (0.5%, 15 ml/kg) is injected intraperitoneally in mice (NMRI) they will without exception develop a writhing behaviour characterized by stretching their hind legs. The drugs to be tested were administered subcutaneously to 6 female mice at each dose 20 min. before the injection of the acetic acid. After 10 min. the behaviour of the mice was studied in 5 min. The ED50 value is the dose blocking the writhing behaviour in 50% of the animals during the 5 min. study period. [drawing 13]

[3] = tested on: exploratory activity / climbing of mice; experiment: Climbing (inability to ascend net-ladder); type: in vivo, mouse (NMRI female); details: Mus musculus, sc; 0.5 h after administration; read-out: ED50, mg/kg, s.c. (dose rendering 50% of the mice incapable of entering the top of the net-ladder)
Method: When mice are placed in a new area, they explore the whole available territory. Minor and major tranquillizers inhibit the exploratory activity. The sedative effect of drugs is evaluated by the inability of mice to ascend a netladder. The process of climbing is very complex and consists of psychical and taxic (motor performance) components. For the experiments a transparent cage (36×27×23 cm) and a net-ladder (35×6 cm) standing with an inclination of 45° was used. (P. Kneip. Arch. Int. Pharmacodyn. 76, 238 (1960); F. Sandberg, Arzneimittelforsch. 4, 203 (1959)).
The test compound is administered s.c. (10 ml/kg) to 6 NMRI female mice per dose. The mice are marked with a number code from 1 to 6, in order to recognize each individual mouse. In 25 minutes, 55 minutes, 1 h 55 minutes and 3 h 55 minutes time after the administration the mice are placed in the above-mentioned cage for 10 minutes. The number of mice ascending the top of the net-ladder is noted. Other behavioural items are also noted. The ED50 (mg/kg) reported is the dose rendering 50% of the mice incapable of entering the top of the net-ladder 0.5 h after the administration.

[4] = tested on: guinea pig papillary muscle; experiment: Prolongation of effective refractory period in guinea pig papillary muscle; details: 10^-7 M; pacing frequencies 1, 2 and 4 Hz
[5] = tested on: isolation-induced aggressive behaviour of male mice; experiment: Isolation-induced aggressive behaviour; type: in vivo, mouse (male NMR mice); details: Mus musculus, sc; 1.0 hour after drug administration; read-out: ED50, mg/kg, sc (dose inhibiting aggressive behaviour among 50 percent of the pairs)
Text: Male mice subjected to prolonged isolation develop aggressive behavior against each other when paired. […] The clinical correlation of this test indicates tranquillizing and anxiolytic activities as well as antiaggressive properties as such (R. L. Duncan et al., J. Med. Chem. 13, 1 (1970)).
This type of aggression is interesting because it is known that this kind of emotional behaviour might be located in limbic structures in the brain (P. D. Mac Lean, Psychosom. Med. 11, 338 (1949)).
Every week 24 male NMR mice, weighing 20-22 g, were isolated in Makrolon cages for three weeks with diet and water ad libitum. A piece of cardboard was placed between the cages to prevent visual contact.
To test aggressiveness the mice were paired in a neutral area, a beaker (14 cm high and diameter 14 cm). A pair is considered aggressive if both the animals show clear signs of fighting within 5 min. This fighting is characterized by biting and vocalization. As soon as fighting is seen, the mice are separated and brought to their home cage. […] Animals showing no aggression are discarded. […] The test substance is administered s.c. (0.2-0.4 ml/20 g). The mice are paired 1/2 h, 1 h, 2 h, 4 h, 6 h and 24 h after the injection for trials of 5 min. duration.
The ED50 -value (mg/kg) reported is the dose inhibiting aggressive behaviour among 50 percent of the pairs 1.0 hour after drug administration.

[6] = tested on: isolation-induced aggressive behaviour of male mice; details: background on clinically used drugs; in words; cited from earlier work

Row | Structure (SMILES) | Percent shocks compared to controls (Geller conflict test; dose 0.5 mg/kg) [%] | protecting capacity against the induced stress (thymus; in words) | Relative weight of thymus, ×100 (thymus; pre-treatment dose 1.0 mg/kg, once 10 min before first swim-test, saline stressed 36, unstressed 66, Wilcoxon's ranking test) | ED50 ([1]; read-out: ED50, mg/kg, s.c., 2 hrs after injection) [mg/kg] | ED50 ([1]; 1 hr after injection, read-out: ED50, mg/kg, s.c., 1 hr) [mg/kg] | Inhibition, % (gastric ulcers) (gastric ulcers in rats) [%] | ED50 [2] [mg/kg] | ED50 [3] [mg/kg] | prolongation of the effective refractory period [4] [ms] | ED50 [5] [mg/kg] | effect on isolation-induced aggressive behaviour [6] | Percent shocks compared to controls (Geller conflict test; dose 1.0 mg/kg) [%]
1 | CCNC(=O)N1CCN(CCCC(c2ccc(F)cc2)c2ccc(F)cc2)CC1 [II, N'-Ethyl-4-[4,4-(di-p-fluorophenyl)butyl]-1-piperazinecarboxamide] | 250 | most protecting capacity | 50 | 1.9 | 0.4 | 43 | 0.7 | 0.7 | 30 | 1.3 | – | –
2 | CN1C(=O)CN=C(c2ccccc2)c2cc(Cl)ccc21 [Diazepam, reference compound] | – | – | – | – | – | – | – | – | – | – | active | 240
